Measurements published in ChEMBL document CHEMBL1157625, “Design, synthesis and preliminary activity assay of 1,2,3,4-tetrahydroisoquinoline-3-carboxylic acid derivatives as novel Histone deacetylases (HDACs) inhibitors” (Bioorg Med Chem, 2010).

Assays:
Histone deacetylase 8 = target: T1, Histone deacetylase 8 (Homo sapiens, UniProt Q9BY41)
T1 sequence (Q9BY41 whole entry): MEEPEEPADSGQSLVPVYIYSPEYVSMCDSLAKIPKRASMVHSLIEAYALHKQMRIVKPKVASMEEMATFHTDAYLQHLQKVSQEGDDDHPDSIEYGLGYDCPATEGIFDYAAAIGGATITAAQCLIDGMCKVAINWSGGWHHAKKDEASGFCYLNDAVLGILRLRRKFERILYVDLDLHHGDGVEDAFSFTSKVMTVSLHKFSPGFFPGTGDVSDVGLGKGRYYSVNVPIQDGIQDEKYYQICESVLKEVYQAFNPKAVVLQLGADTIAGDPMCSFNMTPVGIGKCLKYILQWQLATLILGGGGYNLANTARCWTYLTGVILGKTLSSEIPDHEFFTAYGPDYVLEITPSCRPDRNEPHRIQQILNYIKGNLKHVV
Description: Inhibition of HDAC8 expressed in Escherichia coli assessed as Boc-Lys (acetyl)-AMC substrate hydrolysis by fluorimetric assay

HL-60 = assay: Antiproliferative activity against human HL60 cells after 48 hrs by MTT assay; format: functional, cell-based; conditions: HL-60, 48 h
HCT-116 = assay: Antiproliferative activity against human HCT116 cells after 48 hrs by MTT assay; format: functional, cell-based; conditions: HCT-116, 48 h
SK-OV-3 = assay: Antiproliferative activity against human SKOV3 cells after 48 hrs by MTT assay; format: functional, cell-based; conditions: SK-OV-3, 48 h

IC50 (Histone deacetylase 8) [µM]	SMILES	also measured
12.2	CC(C)(C)NC(=O)[C@@H]1Cc2ccc(OCC(=O)NO)cc2CN1	
1.29	CC(C)(C)OC(=O)N1Cc2cc(OCC(=O)NO)ccc2C[C@H]1C(=O)Nc1ccccc1	
8.21	O=C(COc1ccc2c(c1)CN[C@H](C(=O)Nc1ccccc1)C2)NO	
3.41	CC(C)(C)OC(=O)N1Cc2cc(OCC(=O)NO)ccc2C[C@H]1C(=O)NCc1ccccc1	
5.57	COc1ccc(NC(=O)[C@@H]2Cc3ccc(OCC(=O)NO)cc3CN2)cc1	
5.1	O=C(COc1ccc2c(c1)CN[C@H](C(=O)NCc1ccccc1)C2)NO	
2.67	CC(C)(C)OC(=O)N1Cc2cc(OCC(=O)NO)ccc2C[C@H]1C(=O)NCCc1ccccc1	
3.23	O=C(COc1ccc2c(c1)CN[C@H](C(=O)Nc1ccc(F)cc1)C2)NO	
4.42	CCCCCCNC(=O)[C@@H]1Cc2ccc(OCC(=O)NO)cc2CN1C(=O)OC(C)(C)C	
2.21	O=C(COc1ccc2c(c1)CN[C@H](C(=O)Nc1ccc(-c3ccccc3)cc1)C2)NO	
1.65	Cc1ccc(NC(=O)[C@@H]2Cc3ccc(OCC(=O)NO)cc3CN2C(=O)OC(C)(C)C)cc1	
3.02	CCCCCNC(=O)[C@@H]1Cc2ccc(OCC(=O)NO)cc2CN1C(=O)OC(C)(C)C	
1.55	CC(C)(C)OC(=O)N1Cc2cc(OCC(=O)NO)ccc2C[C@H]1C(=O)Nc1ccc(F)c(Cl)c1	
4.25	CC(C)(C)OC(=O)N1Cc2cc(OCC(=O)NO)ccc2C[C@H]1C(=O)Nc1cccc2ccccc12	
1.06	O=C(COc1ccc2c(c1)CN[C@H](C(=O)Nc1cccc3ccccc13)C2)NO	IC50 (HL-60): 980 µM; IC50 (HCT-116): 170 µM; IC50 (SK-OV-3): 750 µM
> 50	O=C(COc1ccc2c(c1)CN1C(=O)N(c3ccc(-c4ccccc4)cc3)C(=O)[C@@H]1C2)NO	
3.39	Cc1ccc(NC(=O)[C@@H]2Cc3ccc(OCC(=O)NO)cc3CN2)c(C)c1	

IC50 (Histone deacetylase 8) [µM]	SMILES	also measured
5.77	CCCCCCNC(=O)[C@@H]1Cc2ccc(OCC(=O)NO)cc2CN1	
1.17	CC(C)(C)OC(=O)N1Cc2cc(OCC(=O)NO)ccc2C[C@H]1C(=O)Nc1cccc(Cl)c1	IC50 (HL-60): 960 µM; IC50 (HCT-116): 490 µM; IC50 (SK-OV-3): 680 µM
3.78	Cc1ccc(NC(=O)[C@@H]2Cc3ccc(OCC(=O)NO)cc3CN2C(=O)OC(C)(C)C)c(C)c1	
3.82	Cc1ccc(NC(=O)[C@@H]2Cc3ccc(OCC(=O)NO)cc3CN2)cc1	
4	Cc1ccccc1NC(=O)[C@@H]1Cc2ccc(OCC(=O)NO)cc2CN1C(=O)OC(C)(C)C	
4.13	Cc1ccccc1NC(=O)[C@@H]1Cc2ccc(OCC(=O)NO)cc2CN1	
3.62	Cc1cccc(NC(=O)[C@@H]2Cc3ccc(OCC(=O)NO)cc3CN2)c1	
2.56	CC(C)(C)OC(=O)N1Cc2cc(OCC(=O)NO)ccc2C[C@H]1C(=O)Nc1ccc(F)cc1	
1	COc1ccc(NC(=O)[C@@H]2Cc3ccc(OCC(=O)NO)cc3CN2C(=O)OC(C)(C)C)cc1	IC50 (HL-60): > 2120 µM; IC50 (HCT-116): 48 µM; IC50 (SK-OV-3): 420 µM
4.07	O=C(COc1ccc2c(c1)CN[C@H](C(=O)NCCc1ccccc1)C2)NO	
3.34	O=C(COc1ccc2c(c1)CN[C@H](C(=O)Nc1ccc(F)c(Cl)c1)C2)NO	
1.77	Cc1cccc(NC(=O)[C@@H]2Cc3ccc(OCC(=O)NO)cc3CN2C(=O)OC(C)(C)C)c1	
1.98	CC(C)(C)OC(=O)N1Cc2cc(OCC(=O)NO)ccc2C[C@H]1C(=O)Nc1ccc(-c2ccccc2)cc1	
4.58	CC(C)(C)NC(=O)[C@@H]1Cc2ccc(OCC(=O)NO)cc2CN1C(=O)OC(C)(C)C	
> 50	O=C(COc1ccc2c(c1)CN1C(=O)N(c3ccccc3)C(=O)[C@@H]1C2)NO	
3.2	O=C(COc1ccc2c(c1)CN[C@H](C(=O)Nc1cccc(Cl)c1)C2)NO	
3.54	CCCCCNC(=O)[C@@H]1Cc2ccc(OCC(=O)NO)cc2CN1	

SMILES	IC50 (Histone deacetylase 8) [µM]	also measured
O=C(COc1ccc2c(c1)CN(C(=O)OCc1ccccc1)[C@H](C(=O)NCCc1ccccc1)C2)NO	0.58	IC50 (HL-60): > 2000 µM; IC50 (HCT-116): 370 µM; IC50 (SK-OV-3): > 2000 µM
